From patent US9745325B2, “Fused heterocyclic compound” (Takeda Pharmaceutical Company Limited, priority 2014, dated 2017)

How the values were obtained:
[1] = tested on: human multiple myeloma RPMI8226 cells; test: Inhibitory activity against human multiple myeloma RPMI8226 cell growth (CellTiter-Glo); type: cell-based; settings: 1 μM test compound, cultured for 8 days; for inhibition at 1 µM: Homo sapiens, RPMI-8226, 192 h, read-out: Percent inhibition of RPMI8226 cell growth (%); for Percent inhibition of RPMI8226 cell growth (%): 1 µM
How it was run: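 RPMI8226 cells (300/well) cultured 1 day at 37 °C, 5% CO2, then given compound at 1 μM for 8 days. ATP luminescence (CellTiter-Glo) read; percent inhibition relative to 0.1% DMSO wells.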

CDK8/CycC = biological target: T1, CDK8/CycC (Homo sapiens, UniProt P49336); test: CDK8 inhibitory activity (Kinase Tracer-236 / Eu-anti-GST fluorescence assay); type: binding; parameters: Percent inhibition of CDK8 activity (%): concentration or dose not given beside the values; settings: test compound concentration given as '1 1.1.1\4' [sic]
T1 construct: purchased Carna Biosciences
How it was run: (§1)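 Tracer-displacement TR-FRET binding assay: compound with kinase, Eu-cryptate anti-GST antibody and 60 nM Kinase Tracer-236 (pre-dilution level), 1 h at room temperature; ex 320 nm, em 615/665 nm. Percent inhibition is relative to no-compound control and a 10 μM control-compound blank.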

CDC2L6/CycC (CDK19) = biological target: T2, CDC2L6/CycC (CDK19) (Homo sapiens, UniProt Q9BWU1); test: CDK19 inhibitory activity (Kinase Tracer-236 / Eu-anti-GST fluorescence assay); type: binding; parameters: Percent inhibition of CDK19 activity (%): concentration or dose not given beside the values; settings: test compound concentration given as '1 1.1.1\4' [sic]
T2 construct: purchased Carna Biosciences Inc
How it was run: as §1

T1 sequence (P49336 whole entry): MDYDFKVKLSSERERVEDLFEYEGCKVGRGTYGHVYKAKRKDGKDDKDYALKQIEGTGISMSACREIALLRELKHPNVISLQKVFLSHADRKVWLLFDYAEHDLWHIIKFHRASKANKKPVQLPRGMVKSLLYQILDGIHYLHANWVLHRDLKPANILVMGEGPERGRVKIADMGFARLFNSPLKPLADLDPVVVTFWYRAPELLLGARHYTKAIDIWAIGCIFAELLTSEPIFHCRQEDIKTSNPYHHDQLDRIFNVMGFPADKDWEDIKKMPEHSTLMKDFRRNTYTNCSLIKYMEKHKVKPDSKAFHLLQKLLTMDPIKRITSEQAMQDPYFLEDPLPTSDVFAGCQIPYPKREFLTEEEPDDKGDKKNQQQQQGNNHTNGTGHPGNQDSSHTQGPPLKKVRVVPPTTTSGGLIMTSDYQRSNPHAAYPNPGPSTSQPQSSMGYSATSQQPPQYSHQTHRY
T1 sequence (P24863 whole entry partner): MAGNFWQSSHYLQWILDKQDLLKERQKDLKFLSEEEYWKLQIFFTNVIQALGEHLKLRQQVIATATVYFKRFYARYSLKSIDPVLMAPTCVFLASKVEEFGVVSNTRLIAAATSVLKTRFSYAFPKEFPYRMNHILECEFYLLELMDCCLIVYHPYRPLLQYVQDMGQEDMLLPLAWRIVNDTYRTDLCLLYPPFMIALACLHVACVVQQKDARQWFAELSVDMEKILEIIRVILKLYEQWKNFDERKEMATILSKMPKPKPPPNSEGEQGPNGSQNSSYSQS
T2 sequence (Q9BWU1 whole entry): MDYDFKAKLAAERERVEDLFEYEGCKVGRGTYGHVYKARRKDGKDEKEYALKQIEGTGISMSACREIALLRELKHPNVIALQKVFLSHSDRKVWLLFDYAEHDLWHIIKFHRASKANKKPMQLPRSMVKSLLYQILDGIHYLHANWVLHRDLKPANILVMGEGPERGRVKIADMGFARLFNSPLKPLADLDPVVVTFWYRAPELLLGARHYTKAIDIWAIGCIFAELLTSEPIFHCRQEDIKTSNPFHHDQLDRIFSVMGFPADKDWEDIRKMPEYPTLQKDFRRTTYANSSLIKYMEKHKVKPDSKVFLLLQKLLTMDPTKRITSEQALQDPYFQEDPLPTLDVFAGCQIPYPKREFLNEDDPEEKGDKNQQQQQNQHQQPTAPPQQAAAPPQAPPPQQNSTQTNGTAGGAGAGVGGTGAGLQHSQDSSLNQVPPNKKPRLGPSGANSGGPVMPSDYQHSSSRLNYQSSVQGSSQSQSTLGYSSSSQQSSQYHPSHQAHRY
T2 sequence (P24863 whole entry partner): as the sequence (P24863 whole entry partner) above

SMILES | Percent inhibition of CDK8 activity (%) (CDK8/CycC) | Percent inhibition of CDK19 activity (%) (CDC2L6/CycC (CDK19)) | inhibition at 1 µM [1] [%] | Percent inhibition of RPMI8226 cell growth (%) [1] [%]
COC1CN(C(=O)c2ccc(Oc3sc(C(N)=O)c4c3-c3sncc3CC4)c(C)n2)C1 [Example 113, 8-((6-((3-Methoxyazetidin-1-yl)carbonyl)-2-methylpyridin-3-yl)oxy)-4,5-dihydrothieno[3,4-g][1,2] benzothiazole-6-carboxamide] | 108 | 101 | 68 | 
CC(C)(O)CNC(=O)c1ccc(Oc2sc(C(N)=O)c3c2-c2sncc2CC3)cn1 [Example 114, 8-((6-((2-Hydroxy-2-methylpropyl)carbamoyl)pyridin-3-yl)oxy)-4,5-dihydrothieno[3,4-g][1,2]benzothiazole-6-carboxamide] | 108 | 100 | 65 | 
CN(CC(C)(C)O)C(=O)c1ccc(Oc2sc(C(N)=O)c3c2-c2sncc2CC3)cn1 [Example 115, 8-((6-((2-Hydroxy-2-methylpropyl) (methyl)carbamoyl)pyridin-3-yl)oxy)-4,5-dihydrothieno[3,4-g][1,2] benzothiazole-6-carboxamide] | 100 | 95 | 63 | 
Cc1nc(C(=O)N(C)C)ccc1Oc1sc(C(N)=O)c2c1-c1sncc1CC2 [Example 116, 8-((6-(Dimethylcarbamoyl)-2-methylpyridin-3-yl)oxy)-4,5-dihydrothieno[3,4-g][1,2]benzothiazole-6-carboxamide] | 103 | 99 | 61 | 
CCOCCNC(=O)c1ccc(Oc2sc(C(N)=O)c3c2-c2sncc2CC3)cn1 [Example 117, 8-((6-((2-Ethoxyethyl)carbamoyl)pyridin-3-yl)oxy)-4,5-dihydrothieno [3,4-g][1,2]benzothiazole-6-carboxamide] | 110 | 99 | 64 | 
NC(=O)c1sc(Oc2ccc(C(=O)NC3CC3)nc2)c2c1CCc1cnsc1-2 [Example 118, 8-((6-(Cyclopropylcarbamoyl)pyridin-3-yl)oxy)-4,5-dihydrothieno[3,4-g][1,2] benzothiazole-6-carboxamide] | 104 | 100 | 64 | 
CCOCCNC(=O)c1ccc(Oc2sc(C(N)=O)c3c2-c2sncc2CC3)c(C)n1 [Example 119, 8-((6-((2-Ethoxyethyl)carbamoyl)-2-methylpyridin-3-yl)oxy)-4,5-dihydrothieno[3,4-g][1,2]benzothiazole-6-carboxamide] | 108 | 101 | 68 | 
CCOCCNC(=O)c1ccc(Oc2sc(C(N)=O)c3c2-c2sncc2CC3)cc1 [Example 120] | 104 | 99 | 74 | 
COCCN(C)C(=O)c1ccc(Oc2sc(C(N)=O)c3c2-c2sncc2CC3)c(C)n1 [Example 121, 8-((6-((2-Methoxyethyl)(methyl)carbamoyl)-2-methylpyridin-3-yl)oxy)-4,5-dihydrothieno[3,4-g][1,2] benzothiazole-6-carboxamide] | 104 | 101 | 63 | 
COCCN(C)C(=O)c1ccc(Oc2sc(C(N)=O)c3c2-c2sncc2CC3)cc1 [Example 123] | 100 | 101 | 64 | 
Cc1n[nH]c(C)c1Oc1sc(C(N)=O)c2c1-c1sncc1CC2 [Example 124, 8-((3,5-Dimethyl-1H-pyrazol-4-yl)oxy)-4,5-dihydrothieno[3,4-g][1,2] benzothiazole-6-carboxamide] | 105 | 101 | 70 | 
COCC(=O)N(C)c1ccc(Oc2sc(C(N)=O)c3c2-c2sncc2CC3)cn1 [Example 125, 8-((6-((Methoxyacetyl)(methyl)amino)pyridin-3-yl)oxy)-4,5-dihydrothieno [3,4-g][1,2]benzothiazole-6-carboxamide] | 102 | 101 | 66 | 
COCC(=O)N(C)c1ccc(Oc2sc(C(N)=O)c3c2-c2sncc2CC3)c(C)n1 [Example 126, 8-((6-((Methoxyacetyl)(methyl)amino)-2-methylpyridin-3-yl)oxy)-4,5-dihydrothieno[3,4-g][1,2]benzothiazole-6-carboxamide] | 103 | 102 | 67 | 
COCC(=O)Nc1ccc(Oc2sc(C(N)=O)c3c2-c2sncc2CC3)c(C)n1 [Example 127, 8-((6-((Methoxyacetyl)amino)-2-methylpyridin-3-yl)oxy)-4,5-dihydrothieno[3,4-g][1,2]benzothiazole-6-carboxamide] | 106 | 100 | 65 | 
CC(=O)Nc1ccc(Oc2sc(C(N)=O)c3c2-c2sncc2CC3)c(C)n1 [Example 128, 8-((6-Acetamido-2-methylpyridin-3-yl)oxy)-4,5-dihydrothieno[3,4-g][1,2] benzothiazole-6-carboxamide] | 98 | 102 | 70 | 
CNc1ccc(Oc2sc(C(N)=O)c3c2-c2sncc2CC3)cn1 [Example 129, 8-((6-(Methylamino)pyridin-3-yl)oxy)-4,5-dihydrothieno[3,4-g][1,2] benzothiazole-6-carboxamide] | 100 | 98 | 66 | 
NC(=O)c1sc(Oc2ccc(NC(=O)C3CC3)nc2)c2c1CCc1cnsc1-2 [Example 130, 8-((6-((Cyclopropylcarbonyl)amino)pyridin-3-yl)oxy)-4,5-dihydrothieno [3,4-g][1,2]benzothiazole-6-carboxamide] | 101 | 99 | 66 | 

Second part, led by results:

Percent inhibition of CDK8 activity (%) (CDK8/CycC) | Percent inhibition of CDK19 activity (%) (CDC2L6/CycC (CDK19)) | SMILES | inhibition at 1 µM [1] [%] | Percent inhibition of RPMI8226 cell growth (%) [1] [%]
101 | 102 | Cc1nc(C(N)=O)ccc1Oc1sc(C(N)=O)c2c1-c1sncc1CC2 [Example 131, 8-((6-Carbamoyl-2-methylpyridin-3-yl)oxy)-4,5-dihydrothieno[3,4-g][1,2] benzothiazole-6-carboxamide] | 73 | 
102 | 97 | NC(=O)c1sc(Oc2cccnc2)c2c1CCc1cnsc1-2 [Example 132, 8-(Pyridin-3-yloxy)-4,5-dihydrothieno [3,4-g][1,2]benzothiazole-6-carboxamide] | 61 | 
110 | 101 | CCC(=O)Nc1ccc(Oc2sc(C(N)=O)c3c2-c2sncc2CC3)c(C)n1 [Example 133, 8-((2-Methyl-6-(propionylamino)pyridin-3-yl)oxy)-4,5-dihydrothieno [3,4-g][1,2]benzothiazole-6-carboxamide] | 63 | 
100 | 99 | CCC(=O)Nc1ccc(Oc2sc(C(N)=O)c3c2-c2sncc2CC3)cn1 [Example 134, 8-((6-(Propionylamino)pyridin-3-yl)oxy)-4,5-dihydrothieno[3,4-g][1,2] benzothiazole-6-carboxamide] | 59 | 
109 | 97 | CC(=O)N(C)c1ccc(Oc2sc(C(N)=O)c3c2-c2sncc2CC3)cn1 [Example 135, 8-((6-(Acetyl(methyl)amino)pyridin-3-yl)oxy)-4,5-dihydrothieno[3,4-g][1,2] benzothiazole-6-carboxamide] | 55 | 
107 | 102 | CCOC(=O)Nc1ccc(Oc2sc(C(N)=O)c3c2-c2sncc2CC3)c(C)n1 [Example 136, Ethyl (5-((6-carbamoyl-4,5-dihydrothieno[3,4-g][1,2]benzothiazol-8-yl)oxy)-6-methylpyridin-2-yl) carbamate] | 66 | 
103 | 100 | COCCNC(=O)c1ccc(Oc2sc(C(N)=O)c3c2-c2sncc2CC3)cn1 [Example 138, 8-((6-((2-Methoxyethyl)carbamoyl)pyridin-3-yl)oxy)-4,5-dihydrothieno[3,4-g][1,2]benzothiazole-6-carboxamide fumaric acid (1:1)] |  | 69
103 | 100 | COCCNC(=O)c1ccc(Oc2sc(C(N)=O)c3c2-c2sncc2CC3)cn1 [Example 139, 8-((6-((2-Methoxyethyl)carbamoyl)pyridin-3-yl)oxy)-4,5-dihydrothieno[3,4-g][1,2]benzothiazole-6-carboxamide succinic acid (1:1)] |  | 71
